Results: BindingDB's records for doi:10.1021/jm960274q (Basf, 1996)

What follows are compounds tested against Endothelin receptor type B (Cavia porcellus) (assay: Binding affinity towards Endothelin B receptor by measuring its ability to displace [125I]ET-3 from guinea pig cerebellum).

Structure (SMILES)	Ki [nM]
CCOc1cc(OCC)nc(OC(C(=O)O)C(OC)(c2ccccc2)c2ccccc2)n1 (centres undefined) [2-(4,6-Diethoxy-pyrimidin-2-yloxy)-3-methoxy-3,3-diphenyl-propionic acid]	2500
COc1cc(OC)nc(OC(C(=O)O)C(OC)(c2ccccc2F)c2ccccc2F)n1 (centres undefined) [2-(4,6-Dimethoxy-pyrimidin-2-yloxy)-3,3-bis-(2-fluoro-phenyl)-3-methoxy-propionic acid]	6000
COc1cc(OC)nc(OC(C(=O)O)C(OC)(c2cccc(F)c2)c2cccc(F)c2)n1 (centres undefined) [2-(4,6-Dimethoxy-pyrimidin-2-yloxy)-3,3-bis-(3-fluoro-phenyl)-3-methoxy-propionic acid]	1800
COc1cc(OC)nc(OC(C(=O)O)C(O)(c2ccccc2)c2ccccc2)n1 (centres undefined) [2-(4,6-Dimethoxy-pyrimidin-2-yloxy)-3-hydroxy-3,3-diphenyl-propionic acid]	3500
COc1cc(OC)nc(OC(C(=O)O)C(Oc2ccccc2)(c2ccccc2)c2ccccc2)n1 (centres undefined) [2-(4,6-Dimethoxy-pyrimidin-2-yloxy)-3-phenoxy-3,3-diphenyl-propionic acid]	1500

Now those with a lower Ki, led by results:

Ki [nM]	Structure (SMILES)
1300	COc1cc(OC)nc(OC(C(=O)O)C(OC)(c2cccc(C)c2)c2cccc(C)c2)n1 (centres undefined) [2-(4,6-Dimethoxy-pyrimidin-2-yloxy)-3-methoxy-3,3-di-m-tolyl-propionic acid]
1300	COc1cc(OC)nc(OC(C(=O)O)C(OC)(c2ccc(Cl)cc2)c2ccc(Cl)cc2)n1 (centres undefined) [3,3-Bis-(4-chloro-phenyl)-2-(4,6-dimethoxy-pyrimidin-2-yloxy)-3-methoxy-propionic acid]
1000	COc1cc(OC)nc(OC(C(=O)O)C(OC)(c2ccc(C)cc2)c2ccc(C)cc2)n1 (centres undefined) [2-(4,6-Dimethoxy-pyrimidin-2-yloxy)-3-methoxy-3,3-di-p-tolyl-propionic acid]
160	CCc1cc(C)nc(OC(C(=O)O)C(OC)(c2ccccc2)c2ccccc2)n1 (centres undefined) [2-(4-Ethyl-6-methyl-pyrimidin-2-yloxy)-3-methoxy-3,3-diphenyl-propionic acid]
